Experimental data reported in patent US12692236B2, “Small molecule modulators of sigma-1 and sigma-2 receptors and uses thereof” (Northwestern University, priority 2018, dated 2026).
Like-named read-outs stand apart in the source and are kept apart here.

Columns and labels:
[1] = target: sigma-1 receptor (Homo sapiens, UniProt Q99720); test: sigma-1 receptor binding affinity (Ki)
[2] = target: sigma-2 receptor (Homo sapiens, UniProt Q5BJF2); test: sigma-2 receptor binding affinity (Ki)
sigma-2 receptor, sequence (Q5BJF2 whole entry, species assumed): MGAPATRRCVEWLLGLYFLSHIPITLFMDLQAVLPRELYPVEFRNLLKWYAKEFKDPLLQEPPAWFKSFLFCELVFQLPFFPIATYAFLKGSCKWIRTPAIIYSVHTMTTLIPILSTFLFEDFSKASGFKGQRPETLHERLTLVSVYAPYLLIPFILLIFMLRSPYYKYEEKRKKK

sigma-1 receptor, sequence (Q99720 whole entry, species assumed): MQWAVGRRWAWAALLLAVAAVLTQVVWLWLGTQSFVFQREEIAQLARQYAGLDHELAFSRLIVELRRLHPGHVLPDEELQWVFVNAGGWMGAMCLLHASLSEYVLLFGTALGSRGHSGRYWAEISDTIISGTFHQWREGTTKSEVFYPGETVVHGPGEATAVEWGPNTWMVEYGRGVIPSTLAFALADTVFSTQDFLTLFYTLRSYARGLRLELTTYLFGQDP

Compound	Ki ([1]; read-out: Ki (nM) Sigma-1)	Ki ([2]; read-out: Ki (nM) Sigma-2)	further results
O=C(c1nn(Cc2ccccc2)c2c1CC(NCc1ccc(F)cc1)CC2)N1CCCCC1 (centres unmarked) [compound 201115, (1-benzyl-5-((4-fluorobenzyl)amino)-4,5,6,7-tetrahydro-1H-indazol-3-yl)(piperidin-1-yl)methanone]	70 nM	> 10000 nM	selectivity sigma-1 versus sigma-2 (in words) [1]: excellent selectivity
CCCn1nc(C(=O)N(C)C)c2c1CCC(NCCc1ccc(C(F)(F)F)cc1)C2 (centres unmarked) [compound 200878, N,N-dimethyl-1-propyl-5-((4-(trifluoromethyl)phenethyl)amino)-4,5,6,7-tetrahydro-1H-indazole-3-carboxamide]	1400 nM	595 nM	–
CCCn1nc(C(=O)N2CCCCC2)c2c1CCC(Nc1ccc(Oc3ccccc3)cc1)C2 (centres unmarked) [compound 200702]	> 10000 nM	310 nM	–
CCCn1nc(C(=O)N(C)C)c2c1CCC(OCc1ccc(F)cc1)C2 (centres unmarked) [compound 200622, 5-((4-fluorobenzyl)oxy)-N,N-dimethyl-1-propyl-4,5,6,7-tetrahydro-1H-indazole-3-carboxamide]	> 10000 nM	> 10000 nM	activity against sigma-1 (in words) [1]: completely lost; activity against sigma-2 (in words) [2]: completely lost
O=C(c1c2c(nn1-c1ccc(F)cc1)CCC(NCCc1ccncc1)C2)N1CCCCC1 (centres unmarked) [compound 201116, (2-(4-fluorophenyl)-5-((2-(pyridin-4-yl)ethyl)amino)-4,5,6,7-tetrahydro-2H-indazol-3-yl)(piperidin-1-yl)methanone]	103 nM	251 nM	–
O=C(c1nn(-c2ccccc2)c2c1CC(NCc1ccc(F)cc1)CC2)N1CCCCC1 (centres unmarked) [compound 2001685, (5-((4-Fluorobenzyl)amino)-1-phenyl-4,5,6,7-tetrahydro-1H-indazol-3-yl)(piperidin-1-yl)methanone]	159 nM	> 10000 nM	improvement in potency against sigma-1 receptor ([1]; relative to the comparator analog named in the text): over 4 fold
CCCn1nc(C(=O)N(C)C)c2c1CCC(NCCc1ccc3c(c1)OCO3)C2 (centres unmarked) [compound 200876, 5-((2-(benzo[d][1,3]dioxol-5-yl)ethyl)amino)-N,N-dimethyl-1-propyl-4,5,6,7-tetrahydro-1H-indazole-3-carboxamide]	> 10000 nM	430 nM	–
CCCn1nc(C(=O)N2CCCCC2)c2c1CCC(NCCc1ccc(O)cc1)C2 (centres unmarked) [compound 200643, (5-((4-Hydroxyphenethyl)amino)-1-propyl-4,5,6,7-tetrahydro-1H-indazol-3-yl)(piperidin-1-yl)methanone]	> 10000 nM	273 nM	selectivity of sigma-2 ligands against sigma-1 (in words) [2]: excellent selectivity; more potent against sigma-2 ([2]; relative to earlier dimethyl amide analogs): about 8 fold
O=C(c1nn(-c2ccccc2)c2c1CC(NCCc1cccc(O)c1)CC2)N1CCCCC1 (centres unmarked) [compound 201681, (5-((3-Hydroxyphenethyl)amino)-1-phenyl-4,5,6,7-tetrahydro-1H-indazol-3-yl)(piperidin-1-yl)methanone]	204 nM	> 10000 nM	–
CCCn1nc(C(=O)N2CCCCC2)c2c1CCC(N1CCN(c3ccc([N+](=O)[O-])cc3)CC1)C2 (centres unmarked) [compound 200709, (5-(4-(4-Nitrophenyl)piperazin-1-yl)-1-propyl-4,5,6,7-tetrahydro-1H-indazol-3-yl)(piperidin-1-yl)methanone]	1590 nM	526 nM	–
CCCn1nc(C(=O)N2CCCCC2)c2c1CCC(NCCc1ccncc1)C2 (centres unmarked) [compound 200390, Piperidin-1-yl(1-propyl-5-((2-(pyridin-4-yl)ethyl)amino)-4,5,6,7-tetrahydro-1H-indazol-3-yl)methanone]	–	–	activity against sigma-1 (in words) [1]: eliminated the activity; activity against sigma-2 (in words) [2]: eliminated the activity
CCCn1nc(C(=O)N2CCCCC2)c2c1CCC(NCCc1cccc(O)c1)C2 (centres unmarked) [compound 200646, (5-((3-Hydroxyphenethyl)amino)-1-propyl-4,5,6,7-tetrahydro-1H-indazol-3-yl)(piperidin-1-yl)methanone]	872 nM	612 nM	–
O=C(c1nn(-c2ccccc2)c2c1CC(NCCc1ccc3c(c1)OCO3)CC2)N1CCCCC1 (centres unmarked) [compound 201679, (5-((2-(Benzo[d][1,3]dioxol-5-yl)ethyl)amino)-1-phenyl-4,5,6,7-tetrahydro-1H-indazol-3-yl)(piperidin-1-yl)methanone]	547 nM	349 nM	–
CCCn1nc(C(=O)N(C)C)c2c1CCC(NCc1ccc(F)cc1)C2 (centres unmarked) [compound 54121, 5-((4-Fluorobenzyl)amino)-N,N-dimethyl-1-propyl-4,5,6,7-tetrahydro-1H-indazole-3-carboxamide]	1580 nM	2190 nM	activity against sigma-1 (in words) [1]: moderate activity; selectivity sigma-1 versus sigma-2 (in words) [1]: slightly more selectivity for the sigma-1 receptor; Ki ([1]; read-out: Ki sigma-1): 1500 nM; activity against sigma-2 (in words) [2]: moderate activity; Ki ([2]; read-out: Ki sigma-2): 2100 nM
C=Cc1ccc(-n2nc(C(=O)N3CCCCC3)c3c2CCC(NCCc2ccccc2)C3)cc1 (centres unmarked) [compound 201244, (5-(Phenethylamino)-1-(4-vinylphenyl)-4,5,6,7-tetrahydro-1H-indazol-3-yl)(piperidin-1-yl)methanone]	458 nM	305 nM	–
